# Results: ChEMBL document CHEMBL5055690, “Introducing the Tellurophene-Appended BODIPY: PDT Agent with Mass Cytometry Tracking Capabilities” (ACS Med Chem Lett, 2021)
# The source made the active and inactive calls. The calls are words filed in the database; no cut-off is given here.
# Legend:
# [1] = Induction of singlet oxygen generation in DMF solution assessed as singlet oxygen quantum yield irradiated with 490 nanometer LED light by DPBF-based assay; assay type: functional
# HeLa [2] = test: Induction of ROS generation in human HeLa cells at 25 nM preincubated for 3 hrs followed by irradiation with 23.6 milliwolt/cm2 of 525 nanometer laser light for 5 mins and measured by DCFDA staining based flourescence method; assay type: functional, cell-based; conditions: time 185.0 min
# HeLa [3] = test: Induction of apoptosis in human HeLa cells at 1.25 nM preincubated for 3 hrs followed by irradiation with 23.6 milliwolt/cm2 of 525 nanometer laser light for 5 mins and measured after 4 hrs by Annexin V/PI staining based flowcytometry assay; assay type: functional, cell-based; conditions: time 185.0 min
# HeLa [4] = test: Induction of ROS generation in human HeLa cells at 25 nM measured after 3 hrs by DCFDA staining based flourescence assay; assay type: cell-based; conditions: 0.025 µM
# HeLa [5] = test: Dark toxicity in human HeLa cells assessed as reduction in cell viability measured after 3 hrs by MTT assay; assay type: cell-based
# [6] = Drug uptake in human HeLa cells assessed as drug accumulation at 25 to 1000 nM incubated for 3 hrs under dark condition by […] mass cytometry; assay type: ADME, cell-based; conditions: 1 µM, dose 25-1000 nM
# HeLa [7] = test: Induction of apoptosis in human HeLa spheroids assessed as cell death at 100 nM preincubated for 3 hrs followed by irradiation with 23.6 milliwolt/cm2 of 525 nanometer laser light for 5 mins and measured after overnight by plate reader assay; assay type: functional, cell-based; conditions: time 185.0 min
smiles,measurement,setting,value
F[B-]1(F)n2cccc2C(c2ccc(-c3ccc[te]3)cc2)=C2C=CC=[N+]21,Activity,[1],0.26
same,Activity,HeLa [2],Active
same,Activity,HeLa [3],Active
same,Activity,HeLa [4],Non-Toxic
same,IC50,HeLa [5],1350 nM
same,Drug uptake,[6],Active
same,Activity,HeLa [7],Active
